Experimental data taken from PubChem BioAssay (NCI).
Several values for one entry are separate records, joined by “and”; a condition that tells them apart may be missing. Identical values can stand only once.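 Results reflect a 48-hour exposure of cells in 96-well plates to compound at five concentrations. GI50: concentration for 50% inhibition of growth. The concentration for full growth arrest is given as TGI.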

What was measured:
Experiment in all cases: inhibition of tumour cell growth, NCI panel, 48 h
MDA-MB-468 breast = tested on: MDA-MB-468 breast
HCT-15 colon = tested on: HCT-15 colon
SR leukemia = tested on: SR leukemia
K-562 leukemia = tested on: K-562 leukemia
MOLT-4 leukemia = tested on: MOLT-4 leukemia

CC/C(=C(\c1ccc(O)cc1)c1ccc(OCCNC)cc1)c1ccccc1
GI50 (MDA-MB-468 breast): 1590 nM and 1530 nM and 1510 nM | TGI (MDA-MB-468 breast): 3200 nM and 2980 nM and 3210 nM

O=C1Nc2ccccc2SC1C1SC(=S)N(Cc2ccccc2)C1=O (configuration not stated)
GI50 (MDA-MB-468 breast): 1050 nM | TGI (MDA-MB-468 breast): 23400 nM

COC(=O)c1c2c(c(C)[n+]([O-])c1C)C(=O)C(NCc1ccc(F)c(Cl)c1)=CC2=O
GI50 (MDA-MB-468 breast): 1120 nM | TGI (MDA-MB-468 breast): 3040 nM

CCOC(=O)C(=Cc1ccc(Br)cc1)C(=O)OCC
GI50 (MDA-MB-468 breast): 1670 nM | TGI (MDA-MB-468 breast): 3450 nM

O=C(NNc1nc2cc(F)ccc2n2c(CN3CC4(COC4)C3)ccc12)c1cnccn1
GI50 (MDA-MB-468 breast): 302 nM | TGI (MDA-MB-468 breast): 1240 nM

O=[N+]([O-])c1ccc2nc(N/N=C/c3ccc(O)cc3)sc2c1
GI50 (MDA-MB-468 breast): 3910 nM | TGI (MDA-MB-468 breast): 20800 nM

O=S(=O)(Nc1ccc(Cl)c(C(F)(F)F)c1)c1ccc(-c2cnc(C3CC3)o2)cc1
GI50 (MDA-MB-468 breast): 144 nM | TGI (MDA-MB-468 breast): 3100 nM

Cc1ccnc2c1NC(=O)c1cccnc1N2C1CC1
GI50 (MDA-MB-468 breast): > 100000 nM | TGI (MDA-MB-468 breast): > 100000 nM

C[C@]12CC[C@@H]3c4ccc(O)cc4CC[C@H]3[C@@H]1CC[C@@H]2NS(=O)(=O)c1cccc(Br)c1
GI50 (MDA-MB-468 breast): 2430 nM | TGI (MDA-MB-468 breast): 11500 nM

Cc1oc2c(c1C(=O)c1ccccc1)C(=O)c1ccccc1C2=O
GI50 (MDA-MB-468 breast): 1740 nM | TGI (MDA-MB-468 breast): 3260 nM

COc1cc(/C=C2\C(=O)N(c3c(Cl)cccc3Cl)c3ccccc32)cc(OC)c1O
GI50 (MDA-MB-468 breast): 2270 nM | TGI (MDA-MB-468 breast): 12900 nM

Cc1cc(C)cc(C(=O)Nc2cccc(-c3cn(-c4ccc(S(N)(=O)=O)cc4)nn3)c2)c1
GI50 (HCT-15 colon): > 10000 nM | TGI (HCT-15 colon): > 10000 nM | GI50 (SR leukemia): 1830 nM | TGI (SR leukemia): > 10000 nM | GI50 (K-562 leukemia): 2920 nM | TGI (K-562 leukemia): > 10000 nM | GI50 (MOLT-4 leukemia): 5580 nM | TGI (MOLT-4 leukemia): > 10000 nM

Nc1cc(C(F)F)c(-c2nc(N3[C@@H]4CC[C@H]3COC4)nc(N3[C@@H]4CC[C@H]3COC4)n2)cn1
GI50 (MDA-MB-468 breast): 249 nM | TGI (MDA-MB-468 breast): 3030 nM

Cc1ccc(NC2=C(Cl)C(=O)c3nc(C)ccc3C2=O)cc1
GI50 (MDA-MB-468 breast): 329 nM | TGI (MDA-MB-468 breast): 1310 nM

O=[N+]([O-])c1ccc(N(CCO)CCO)c2c1no[n+]2[O-]
GI50 (MDA-MB-468 breast): 625 nM | TGI (MDA-MB-468 breast): 2860 nM

C=CCSc1n[nH]c(-c2cccs2)n1
GI50 (MDA-MB-468 breast): > 100000 nM | TGI (MDA-MB-468 breast): > 100000 nM

CCN(C)S(=O)(=O)Nc1cccc(Nc2ncnc3cc(NC(=O)CCl)ccc23)c1Cl
GI50 (MDA-MB-468 breast): 2340 nM | TGI (MDA-MB-468 breast): 6700 nM

N#Cc1ccc(-n2cnc(NC(=O)[C@H]3CCN(C#N)C3)c2)cc1
GI50 (MDA-MB-468 breast): 337 nM | TGI (MDA-MB-468 breast): 2450 nM

N#CC1=C(N)Oc2c(sc3c(F)cccc23)C1c1ccc([N+](=O)[O-])cc1 (configuration not stated)
GI50 (MDA-MB-468 breast): 78.7 nM | TGI (MDA-MB-468 breast): 902 nM

Cc1cc(N2CCN(C)CC2)nc(NC2CCCC(Nc3ccnc4cc(Cl)ccc34)C2)n1 (configuration not stated)
GI50 (MDA-MB-468 breast): 1670 nM | TGI (MDA-MB-468 breast): 4360 nM

COc1cc2c(cc1OC)C(Sc1ccc(F)cc1)c1c(nc(N)c(C#N)c1N)O2 (configuration not stated)
GI50 (MDA-MB-468 breast): 511 nM | TGI (MDA-MB-468 breast): 1840 nM

CCn1c2ccccc2c2cc(-n3nncc3-c3ccccc3)ccc21
GI50 (MDA-MB-468 breast): 437 nM | TGI (MDA-MB-468 breast): > 100000 nM

CN(C)CCCC1(c2ccc(F)cc2)OCc2cc(-c3ccc4cc[nH]c4c3)ccc21 (configuration not stated)
GI50 (MDA-MB-468 breast): 1750 nM | TGI (MDA-MB-468 breast): 3440 nM

COc1cc2cc(C(=O)O)[nH]c2cc1OCc1ccccc1
GI50 (MDA-MB-468 breast): > 100000 nM | TGI (MDA-MB-468 breast): > 100000 nM

C=CC(=O)Nc1cc2c(Nc3ccc(OCc4ccccn4)c(Cl)c3)ncnc2cc1OCCN1CCOCC1
GI50 (MDA-MB-468 breast): 14.3 nM | TGI (MDA-MB-468 breast): 282 nM

O=C(Nc1ccc(-n2cc(-c3ccncc3)c(-c3ccc(Cl)c(O)c3)n2)cc1)c1cc(Cl)cc(Cl)c1
GI50 (MDA-MB-468 breast): 6070 nM | TGI (MDA-MB-468 breast): > 100000 nM

CS(=O)(=O)c1ccc(C(F)(F)F)cc1NC(=O)Nc1cnc(Oc2ccc(-c3cc(Cl)cnc3N)cc2)nc1
GI50 (MDA-MB-468 breast): 2020 nM | TGI (MDA-MB-468 breast): 7000 nM

Cc1cc(NC(=O)CCc2ccc(N3C(N)=NC(N)=NC3(C)C)cc2)ccc1S(=O)(=O)F
GI50 (MDA-MB-468 breast): 736 nM | TGI (MDA-MB-468 breast): > 82900 nM

C#C[C@]1(O)CC[C@H]2[C@@H]3CC=C4c5nc(Nc6ccc(OC)cc6OC)sc5CC[C@]4(C)[C@H]3CC[C@@]21C
GI50 (MDA-MB-468 breast): 1840 nM | TGI (MDA-MB-468 breast): 4080 nM

O=C(N/N=C/c1cc2ccccc2c2ccccc12)c1cc(O)c(O)c(O)c1
GI50 (MDA-MB-468 breast): 2460 nM | TGI (MDA-MB-468 breast): 6880 nM

O=C(Oc1ccc([N+](=O)[O-])cc1)N1CCC(C(O)(c2ccc3c(c2)OCO3)c2ccc3c(c2)OCO3)CC1
GI50 (MDA-MB-468 breast): > 100000 nM | TGI (MDA-MB-468 breast): > 100000 nM

NC(=O)c1c(OCc2c(F)cc(Br)cc2F)nsc1NC(=O)NCCCCN1CCCC1
GI50 (MDA-MB-468 breast): 1490 nM | TGI (MDA-MB-468 breast): 3180 nM

CCOC(=O)c1c(C)c2c(n1C)CSc1cc(S(=O)(=O)c3ccccc3)c(=O)[nH]c1-2
GI50 (MDA-MB-468 breast): 14200 nM | TGI (MDA-MB-468 breast): > 100000 nM

CCCn1cnc2c(c1=N)C(c1ccc(OC)cc1)c1sc3c(CC)cccc3c1O2 (configuration not stated)
GI50 (MDA-MB-468 breast): 422 nM | TGI (MDA-MB-468 breast): 4270 nM

COCCOC(C)C(/C=N/NC(N)=S)=N/NC(N)=S (configuration not stated)
GI50 (MDA-MB-468 breast): 21.7 nM | TGI (MDA-MB-468 breast): > 100000 nM

NC(N)=NC(N)=NCCc1ccccc1
GI50 (MDA-MB-468 breast): 6580 nM and 15000 nM | TGI (MDA-MB-468 breast): 94900 nM and > 100000 nM

N#Cc1cccc(Nc2nccc(-c3cnn4ncccc34)n2)c1
GI50 (MDA-MB-468 breast): 8.04 nM | TGI (MDA-MB-468 breast): 29.3 nM

O=C1C(Nc2ccccn2)=C(I)C(=O)c2ncccc21
GI50 (MDA-MB-468 breast): 1220 nM | TGI (MDA-MB-468 breast): 2770 nM
